In brackets after ≈: the same amount, converted by molar mass. Where two headings read alike, the source gives them in different places. Numbered stars: 1 amine (or outer) side, 2 acyl side, 3 side chain; on linkers, the order of the positions; unused ones are H or OH. Square brackets hold non-standard residues; d marks the D form. Peptide text beside a SMILES is read from it. X29 = CN([C@@H](Cc1cccc(-c2ccc(F)cc2)c1)C(=O)[*:2])[*:1]; X34 = CC[C@@H](C)[C@@H](O[*:1])C(=O)[*:2]; Hmp(2R,3S) = CC[C@H](C)[C@@H](O)C(=O)O; NMeVal(β-OH) = CN[C@H](C(=O)O)C(C)(C)O; NMeF = CN[C@@H](Cc1ccccc1)C(=O)O; aIle = CC[C@@H](C)[C@H](N)C(=O)O; NMeV = CN[C@H](C(=O)O)C(C)C
Legend:
[1] = test system: A. fumigatus MMX 5280 ATCC MYA-3626; assay: MIC/MEC assay (CLSI microdilution); type: cell-based, Aspergillus fumigatus
Method: (§1) Aureobasidin and test compounds (i.e., AbA derivatives of the present invention) were received from Kalexsyn, Inc. (Kalamazoo, Mich.) as powder and were stored at 4° C. until the day of assay. […] amphotericin was obtained from Sigma Aldrich and stored under like conditions. […] Ethanol (95%) was used as a solvent and diluent for all AbA compounds. Amphotericin B was tested from 0.06-64 μg/mL. Amphotericin B (Sigma Aldrich; St. Louis, Mo.; Cat No. A9528-100MG, Lot No. 120M4087) was dissolved and diluted with dimethylsulfoxide (DMSO; Sigma Aldrich; St. Louis, Mo.; Cat No. 472301 Lot No. SHBD2072V).
(§2) The solvents were added to the test agents and the stock solutions stood for approximately 1 hr at room temperature prior to use to auto sterilize. Stock solutions were prepared at 40× the desired top concentration in the test plate.
(§3) All of the test isolates were originally received from either the American Type Culture Collection (ATCC), clinical labs, or directly from Aureogen Biosciences. Organisms stored by Micromyx were cultured on agar medium appropriate to each organism. Colonies were picked by swab from the isolation plates and put into suspension in appropriate broth containing cryoprotectant. The suspensions were aliquoted into cryogenic vials and maintained at −80° C.
(§4) Prior to testing, Candida isolates were streaked from the frozen vials on Sabouraud dextrose agar. The yeast isolates were incubated for 48 hours at 35° C. before use. The fungal isolates were obtained from enumerated fungal stocks previously prepared at Micromyx and stored in phosphate buffered saline at 4° C.
(§5) Test Media. The medium employed for the MIC assay was RPMI-1640 medium from HyClone Laboratories (Logan, Utah; Lot No. AYB60287A). The medium was prepared according to Clinical and Laboratory Standards Institute (CLSI) guidelines (1, 2), and modified to include 0.002% Tween-80. Candida parapsilosis ATCC 22019 (MMX 2323) and Aspergillus fumigatus ATCC MYA-3626 (MMX 5280) were also tested without Tween-80 to provide data for the quality control of amphotericin B in accordance with CLSI (3) and to assess the effect of Tween-80 on the activity of the test agents.
(§6) Test Procedure. The MIC assay method followed the procedure described by CLSI (1, 2) and employed automated liquid handlers to conduct serial dilutions and liquid transfers. Automated liquid handlers included the Multidrop 384 (Labsystems, Helsinki, Finland), Biomek 2000 and Biomek FX (Beckman Coulter, Fullerton Calif.). The wells in columns 2-12 in standard 96-well microdilution plates (Costar 3795) were filled with 150 μl of the appropriate diluent (95% EtOH for investigational compounds, 100% DMSO for amphotericin B). These assay plates would become the ‘mother plates’ from which the assay ‘daughter plates’ would be prepared. The drugs (300 μL at 40× the desired top concentration in the test plates) were dispensed into the appropriate well in Column 1 of the mother plates. The Biomek 2000 was used to make two-fold serial dilutions through Column 11 in the “mother plate”. The wells of Column 12 contained no drug and served as the organism growth control wells.
(§7) The daughter plates were loaded with 185 μL per well on the Multidrop 384 with RPMI plus 0.002% Tween-80 or RPMI containing no Tween-80 for the testing of the two QC isolates. The daughter plates were prepared on the Biomek FX instrument which transferred 5 μL of drug solution from each well of a mother plate to each corresponding well of each daughter plate in a single step.
(§8) A standardized inoculum of each organism was prepared per CLSI methods (1, 2). For the Candida isolates, colonies were picked from the streak plate and a suspension was prepared in RPMI to equal a 0.5 McFarland standard. This suspension was diluted 1:100 in RPMI resulting in a final concentration of approximately 0.5-2.5×10^3 CFU/mL. […]

[2] = test system: A. fumigatus MMX 6782 ATCC 13073; assay: MIC/MEC assay (CLSI microdilution); type: cell-based
Method: as §1, §2, §3, §4, §5, §6, §7, §8

A. flavus MMX 5948 = assay: MIC/MEC assay (CLSI microdilution); type: cell-based
Method: as §1, §2, §3, §4, §5, §6, §7, §8

[3] = test system: A. niger MMX 0624 ATCC 16888; assay: MIC/MEC assay (CLSI microdilution); type: cell-based
Method: as §1, §2, §3, §4, §5, §6, §7, §8

A. fumigatus MMX 5944 = assay: MIC/MEC assay (CLSI microdilution); type: cell-based
Method: as §1, §2, §3, §4, §5, §6, §7, §8

[4] = test system: A. fumigatus MMX 6781 ATCC MYA-4609; assay: MIC/MEC assay (CLSI microdilution); type: cell-based
Method: as §1, §2, §3, §4, §5, §6, §7, §8

[5] = test system: C. parapsilosis MMX 2323 ATCC 22019; assay: MIC assay (CLSI microdilution); type: cell-based, Candida parapsilosis
Method: as §1, §2, §3, §4, §5, §6, §7, §8

[6] = test system: C. albicans MMX 2000 ATCC 10231; assay: MIC assay (CLSI microdilution); type: cell-based
Method: as §1, §2, §3, §4, §5, §6, §7, §8

[7] = test system: C. neoformans MMX 0634 ATCC 90112; assay: MIC assay (CLSI microdilution); type: cell-based
Method: as §1, §2, §3, §4, §5, §6, §7, §8

[8] = RPMI plus 0.002% Tween-80, 48 hr
[9] = Aspergillus fumigatus, 48 h, RPMI plus 0.002% Tween-80, read-out: MIC

CC[C@@H](C)[C@@H]1NC(=O)[C@@H]2CCCN2C(=O)[C@H](Cc2ccccc2)N(C)C(=O)[C@H](Cc2ccccc2)NC(=O)[C@H](C(C)C)N(C)C(=O)[C@@H]([C@H](C)CC)OC(=O)[C@H](C(C)(C)O)N(C)C(=O)[C@H](CC(C)C)NC(=O)[C@H](C(C)C)N(C)C1=O [Aureobasidin A, reference compound] (cyclo(F[NMeF]P[aIle][NMeV]L[NMeVal(β-OH)][X34][NMeV]))
MEC [1, 8]: >64/>64 μg/mL | MIC [1, 8]: >64/>64 μg/mL | MEC ([1]; Without Tween-80, 48 hr): >64/>64 μg/mL | MIC ([1]; Without Tween-80, 48 hr): >64/>64 μg/mL | MEC [2, 8]: 2 µg/mL | MIC [2, 8]: > 64 µg/mL | MEC (A. flavus MMX 5948; [8]): >64/>64 μg/mL | MIC (A. flavus MMX 5948; [8]): >64/>64 μg/mL | MEC [3, 8]: >64/>64 μg/mL | MIC [3, 8]: >64/>64 μg/mL | MEC (A. fumigatus MMX 5944; [8]): 2 µg/mL | MIC (A. fumigatus MMX 5944; [8]): > 64 µg/mL | MEC [4, 8]: >64/>64 μg/mL | MIC [4, 8]: >64/>64 μg/mL | MIC ([5]; RPMI plus 0.002% Tween-80): 0.008 µg/mL | MIC ([5]; Without Tween-80): 0.25 µg/mL (≈ 0.227 µM) | MIC ([6]; RPMI plus 0.002% Tween-80): ≤0.002 µg/mL | MIC ([7]; RPMI plus 0.002% Tween-80): 0.06 µg/mL

CC[C@H](C)[C@@H]1NC(=O)[C@@H]2CCCN2C(=O)[C@H](Cc2cccc(-c3ccc(F)cc3)c2)N(C)C(=O)[C@H](Cc2ccccc2)NC(=O)[C@H](C(C)C)N(C)C(=O)[C@@H]([C@@H](C)CC)OC(=O)[C@H](C(C)(C)O)N(C)C(=O)[C@H](CC(C)C)NC(=O)[C@H](C(C)C)N(C)C1=O [Compound 1] (cyclo(F[X29]PI[NMeV]L[NMeVal(β-OH)][Hmp(2R,3S)][NMeV]))
minimal effective concentration ([1]; Aspergillus fumigatus, 48 h, RPMI plus 0.002% Tween-80, read-out: MEC): 0.5 µg/mL | MIC [1, 9]: > 64 µg/mL | minimal effective concentration ([1]; Aspergillus fumigatus, 48 h, Without Tween-80, read-out: MEC): 2 µg/mL | MIC ([1]; Aspergillus fumigatus, 48 h, Without Tween-80, read-out: MIC): > 64 µg/mL | minimal effective concentration ([2]; Aspergillus fumigatus, ATCC13073, 48 h, RPMI plus 0.002% Tween-80, read-out: MEC): 0.5 µg/mL | MIC ([2]; Aspergillus fumigatus, ATCC13073, 48 h, RPMI plus 0.002% Tween-80, read-out: MIC): > 64 µg/mL | minimal effective concentration (A. flavus MMX 5948; Aspergillus flavus, MMX5948, 48 h, RPMI plus 0.002% Tween-80): 1 µg/mL | MIC (A. flavus MMX 5948; Aspergillus flavus, MMX5948, 48 h, RPMI plus 0.002% Tween-80, read-out: MIC): > 64 µg/mL | minimal effective concentration ([3]; Aspergillus niger, ATCC16888, 48 h, RPMI plus 0.002% Tween-80, read-out: MEC): 0.25 µg/mL | MIC ([3]; Aspergillus niger, ATCC16888, 48 h, RPMI plus 0.002% Tween-80, read-out: MIC): 0.25 µg/mL | minimal effective concentration (A. fumigatus MMX 5944; Aspergillus fumigatus, MMX5944, 48 h, RPMI plus 0.002% Tween-80): 0.5 µg/mL | MIC (A. fumigatus MMX 5944; Aspergillus fumigatus, MMX5944, 48 h, RPMI plus 0.002% Tween-80, read-out: MIC): > 64 µg/mL | MIC [4, 9]: > 64 µg/mL | minimal effective concentration ([4]; Aspergillus fumigatus, RPMI plus 0.002% Tween-80, 48 hr): 0.5 µg/mL | MIC ([5]; ATCC22019, RPMI plus 0.002% Tween-80, read-out: MIC): 0.12 µg/mL | MIC ([5]; ATCC22019, Without Tween-80, read-out: MIC): 1 µg/mL (≈ 0.836 µM) | MIC ([6]; Candida albicans, ATCC10231, RPMI plus 0.002% Tween-80, read-out: MIC): 0.015 µg/mL | MIC ([7]; Cryptococcus neoformans, ATCC90112, RPMI plus 0.002% Tween-80, read-out: MIC): 0.12 µg/mL

From patent US11066447B2, “Aureobasidium derivatives and methods of synthesis” (AureoGen Biosciences, Inc., priority 2016, dated 2021)
